Test results taken from publication PMC11044151, “Development of Half-Sandwich Ru, Os, Rh, and Ir Complexes Bearing the Pyridine-2-ylmethanimine Bidentate Ligand Derived from 7-Chloroquinazolin-4(3H)-one with Enhanced Antiproliferative Activity” (ACS Omega, 2024).
pIC50: −log10 of the molar value. Like-named read-outs stand apart in the source and are kept apart here.

How the values were obtained:
[1] = test system: A549; test: Neutral red uptake antiproliferative assay, A549; details: for pIC50: read-out: IC50 A549, exposure time 72 h, n = 3, 95% CI given; for activity factor IC50(1)/IC50(3a–4d), A549: vs corresponding amine (R)-1 or (S)-1, 72 h
Excerpt: (§1) To assess the impact of conjugating half-sandwich complexes with amines 1 via an imine-pyridine ligand on biological activity, we examined the antiproliferative potential of (R)- and (S)-1 and organometallic conjugates 3a–d and 4a–d in selected human cancer cell lines: alveolar basal epithelial cell adenocarcinoma (A549), colorectal adenocarcinomas (Colo205 and SW620), colorectal carcinoma (HCT116), hepatocellular carcinoma (HepG2), and breast adenocarcinoma (MCF7). The choice of cell lines was dictated by results of previously published clinical trials on ispinesib.[49],[50]
Cell lines used in this study were purchased from the American Type Culture Collection via LGC Standards. Human normal lung fibroblasts (MRC-5), alveolar basal epithelial cell adenocarcinoma (A549), colorectal adenocarcinoma (Colo205), hepatocellular carcinoma (HepG2), breast adenocarcinoma (MCF7), and colorectal adenocarcinoma (SW620) and its MDR variants[55] were cultured in standard conditions (37 °C, 5% CO2, 100% relative humidity) in high glucose DMEM medium supplemented with GlutaMax, HEPES (ThermoFisher Scientific) and 10% fetal bovine serum (EURx, Poland). All cell lines were tested for Mycoplasma contamination using a MycoProbe mycoplasma detection kit (R&D System).
(§2) For this purpose, neutral red uptake assay was performed. 10^4 of cells were seeded per well of a 96-well plate and left overnight to allow cells to attach to the surface. Then, the cells were exposed to a desired concentration of tested compounds. Stock solutions were prepared in DMSO and were used immediately after preparation. The final concentration of DMSO was constant and nontoxic (0.1% v/v). After 70 h of culture, neutral red was added to the final concentration of 1 mM. After 2 h of incubation with the dye, the medium was aspirated and cells were washed with ice-cold PBS. The dye was released using 100 μL of the solubilizer (1% acetic acid in 50% ethanol) on an orbital shaker (10 min). The absorbance at 540 nm was measured using an EnVision multilabel plate reader (PerkinElmer). […] The IC90 and IC50 parameters were calculated using GraphPad Prism v9 software using the five-parameter nonlinear logistic regression model.

[2] = test system: SW620E; test: Neutral red uptake antiproliferative assay, MDR line SW620E; format: cell-based, human; details: for pIC50: exposure time 72 h, n = 3, ABCC1- and ABCB1-overexpressing MDR line; for activity factor IC50(1)/IC50(3a–4d), SW620E: vs corresponding amine (R)-1 or (S)-1, 72 h
Excerpt: (§3) Next, we evaluated the cytotoxicity of the synthesized complexes toward the panel of six multidrug-resistant (MDR) cell lines derived from SW620 and characterized by the overexpression of various ABC proteins, namely, ABCG2 (SW620C and SW620Mito), ABCC1 (SW620M and SW620E), and ABCB1 (SW620D, SW620E, and SW620V) (Table 3, Figures S29 and S32). […] The activity of the complexes derived from the ligand (S)-2 is also considerably higher than that of the compounds containing the ligand (R)-2. The cytotoxicity of both rhodium 4c and iridium 4d complexes is higher than that of amine (S)-1. In the case of 4c, the increase in cytotoxicity is low, with the highest value of 3.7-fold for the SW620Mito line. […] Compound 4d also exerts a 2.1- and 2.6-fold higher cytotoxicity than […] against the SW620C and SW620D lines.
(§4) For this purpose, neutral red uptake assay was performed. […] The results were presented as a percentage of control.

[3] = test system: SW620D; test: Neutral red uptake antiproliferative assay, MDR line SW620D; format: cell-based, human; details: for pIC50: exposure time 72 h, n = 3, ABCB1-overexpressing MDR line; for activity factor IC50(1)/IC50(3a–4d), SW620D: vs corresponding amine (R)-1 or (S)-1, 72 h
Excerpt: as §3, §4

[4] = test system: SW620C; test: Neutral red uptake antiproliferative assay, MDR line SW620C; format: cell-based, human; details: for pIC50: exposure time 72 h, n = 3, ABCG2-overexpressing MDR line; for activity factor IC50(1)/IC50(3a–4d), SW620C: vs corresponding amine (R)-1 or (S)-1, 72 h
Excerpt: as §3, §4

[5] = test system: HCT116; test: cells; details: for pIC50: read-out: IC50 HCT116, exposure time 72 h, n = 3, 95% CI given; for activity factor IC50(1)/IC50(3a–4d), HCT116: vs corresponding amine (R)-1 or (S)-1, 72 h
Excerpt: as §1, §2

[6] = test system: SW620V; test: Neutral red uptake antiproliferative assay, MDR line SW620V; format: cell-based, human; details: for pIC50: exposure time 72 h, n = 3, ABCB1-overexpressing MDR line; for activity factor IC50(1)/IC50(3a–4d), SW620V: vs corresponding amine (R)-1 or (S)-1, 72 h
Excerpt: as §3, §4

[7] = test system: HepG2; test: cells; details: for pIC50: read-out: IC50 HepG2, exposure time 72 h, n = 3, 95% CI given; for activity factor IC50(1)/IC50(3a–4d), HepG2: vs corresponding amine (R)-1 or (S)-1, 72 h
In short: (§5)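 Antiproliferative activity was measured as neutral red uptake after 70 h continuous exposure of adherent cells, 0.1% DMSO final. IC50 values were obtained by five-parameter nonlinear regression.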

[8] = test system: Colo205; test: cells; details: for pIC50: read-out: IC50 Colo205, exposure time 72 h, n = 3, 95% CI given; for activity factor IC50(1)/IC50(3a–4d), Colo205: vs corresponding amine (R)-1 or (S)-1, 72 h
In short: as §5

[9] = biological target: T1, KSP (Homo sapiens, UniProt P52732); test: Kinesin ATPase inhibition (ATP hydrolysis) end-point assay; format: biochemical; details: for KSP residual activity: 100 nM stated for ispinesib and (R)-1, concentration not restated for the complexes
T1 construct: purchased Cytoskeleton, Inc
T1 sequence (P52732 1-368 limits assumed): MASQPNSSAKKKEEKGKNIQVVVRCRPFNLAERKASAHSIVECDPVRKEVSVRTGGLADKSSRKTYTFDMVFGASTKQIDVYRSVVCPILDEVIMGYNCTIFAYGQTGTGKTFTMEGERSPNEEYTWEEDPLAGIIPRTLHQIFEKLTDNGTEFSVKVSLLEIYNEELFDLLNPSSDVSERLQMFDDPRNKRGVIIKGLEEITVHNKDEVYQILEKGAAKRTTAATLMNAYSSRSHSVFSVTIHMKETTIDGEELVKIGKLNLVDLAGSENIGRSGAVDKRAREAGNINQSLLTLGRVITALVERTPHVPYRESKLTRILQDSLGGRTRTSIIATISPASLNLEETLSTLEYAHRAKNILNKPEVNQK
Experimental: The mechanism of the anticancer activity of ispinesib is related to the inhibition of the activity of the KSP. Thus, we studied the synthesized compounds’ ability to inhibit KSP activity using the adenosine 5′-triphosphate (ATP) hydrolysis assay.
The potential kinesin modulatory activity of tested compounds was performed using a Kinesin ATPase end-point biochem kit (Cytoskeleton, Inc.). […] The experiment was performed according to the manufacturer’s instructions. One μg of tested kinesin (KSP) was used per reaction. Phosphate release was measured at the absorbance 650 nm using an EnVision multilabel plate reader (PerkinElmer).

pIC50 [1]	activity factor IC50(1)/IC50(3a–4d), A549 [1]	pIC50 [2]	activity factor IC50(1)/IC50(3a–4d), SW620E [2]	pIC50 [3]	activity factor IC50(1)/IC50(3a–4d), SW620D [3]	pIC50 [4]	activity factor IC50(1)/IC50(3a–4d), SW620C [4]	pIC50 [5]	activity factor IC50(1)/IC50(3a–4d), HCT116 [5]	pIC50 [6]	activity factor IC50(1)/IC50(3a–4d), SW620V [6]	pIC50 [7]	activity factor IC50(1)/IC50(3a–4d), HepG2 [7]	pIC50 [8]	activity factor IC50(1)/IC50(3a–4d), Colo205 [8]	KSP residual activity [9]	Compound	increased cytotoxicity vs corresponding amine 1, A549 ([1]; rounded value)	further results
5.94	(1.90)	6.06	(0.949)	5.38	(0.268)	6.23	(1.22)	6.76	(2.00)	6.68	(0.981)	6.16	(0.821)	6.86	(0.775)	47.5%	CC(C)[C@@H](N=Cc1ccccn1)c1nc2cc(Cl)ccc2c(=O)n1Cc1ccccc1.Cc1c(C)c(C)[c-](C)c1C.F[P-](F)(F)(F)(F)F.[Cl-].[Rh+3] [Compound 3c, [(Cp*)Rh((R)-2)Cl]PF6]	2 fold	–
5.95	(1.96)	5.99	(0.819)	6.19	(1.74)	6.47	(2.15)	6.32	(0.727)	6.57	(0.771)	6.34	(1.25)	6.28	(0.204)	64.0%	CC(C)[C@@H](N=Cc1ccccn1)c1nc2cc(Cl)ccc2c(=O)n1Cc1ccccc1.Cc1c(C)c(C)[c-](C)c1C.F[P-](F)(F)(F)(F)F.[Cl-].[Ir+3] [Compound 3d, [(Cp*)Ir((R)-2)Cl]PF6]	2 fold	higher cytotoxicity than corresponding amine 1, SW620D ([3]; rounded value): 1.7 fold; higher cytotoxicity than corresponding amine 1, SW620C ([4]; rounded value): 2.2 fold
5.98	(2.12)	5.45	(0.237)	5.41	(0.286)	5.93	(0.616)	6.37	(0.816)	5.99	(0.200)	6.73	(3.01)	6.35	(0.239)	71.8%	CC(C)[C@@H](N=Cc1ccccn1)c1nc2cc(Cl)ccc2c(=O)n1Cc1ccccc1.Cc1ccc(C(C)C)cc1.F[P-](F)(F)(F)(F)F.[Cl-].[Os+2] [Compound 3b, [(cym)Os((R)-2)Cl]PF6]	–	increased cytotoxicity vs corresponding amine 1, A549 [1]: 2 fold; increased cytotoxicity vs corresponding amine 1, HepG2 [7]: 3 fold
5.61	(0.902)	5.26	(0.151)	5.14	(0.155)	5.36	(0.165)	5.54	(0.120)	5.33	(0.044)	5.80	(0.360)	5.90	(0.085)	–	CC(C)[C@@H](N=Cc1ccccn1)c1nc2cc(Cl)ccc2c(=O)n1Cc1ccccc1.Cc1ccc(C(C)C)cc1.F[P-](F)(F)(F)(F)F.[Cl-].[Ru+2] [Compound 3a, [(cym)Ru((R)-2)Cl]PF6]	–	KSP inhibitory activity (in words) ([9]; 100, 300 and 1000 nM): nonactive
